# Experimental data published in US5840684A, “Glycopeptide antibiotic derivatives” (Eli Lilly and Company, priority 1995, dated 1998).
# How the values were obtained:
# [1] = system: Staphylococcus aureus S13E; type: cell-based
# Procedure: (§1) The MIC's were determined using a standard broth micro-dilution assay.
# [2] = system: Staphylococcus aureus SA1199B; type: cell-based
# Procedure: as §1
# [3] = system: Entercoccus faecium 180-1; experiment: broth micro-dilution MIC; type: cell-based
# Procedure: as §1
# Entercoccus faecium 276 = experiment: broth micro-dilution MIC; type: cell-based
# Procedure: as §1
# [4] = system: Staphylococcus aureus 446; experiment: broth micro-dilution MIC; type: cell-based
# Procedure: as §1
# [5] = system: Staphylococcus aureus 489; experiment: broth micro-dilution MIC; type: cell-based
# Procedure: as §1
# [6] = system: Staphylococcus aureus 491; experiment: broth micro-dilution MIC; type: cell-based
# Procedure: as §1
# [7] = system: Staphylococcus aureus SA1199A; experiment: broth micro-dilution MIC; type: cell-based
# Procedure: as §1
# [8] = system: Staphylococcus aureus SA1199; experiment: broth micro-dilution MIC; type: cell-based
# Procedure: as §1
# [9] = system: Staphylococcus aureus X400; experiment: broth micro-dilution MIC; type: cell-based
# Procedure: as §1
# [10] = system: Staphylococcus aureus X778; experiment: broth micro-dilution MIC; type: cell-based
# Procedure: as §1
# [11] = system: Streptococcus pyogenes C203; experiment: broth micro-dilution MIC; type: cell-based
# Procedure: as §1
# Entercoccus faecium 180 = experiment: broth micro-dilution MIC; type: cell-based; conditions: Entercoccus faecium 180
# Procedure: (§2) The formula I compounds have in vitro and in vivo activity against Gram-positive pathogenic bacteria. The MIC's were determined using a standard broth micro-dilution assay.
# Entercoccus faecium 2041 = experiment: broth micro-dilution MIC; type: cell-based; conditions: Entercoccus faecium 2041
# Procedure: as §2
# [12] = system: Enterococcus gallinarum 245; experiment: broth micro-dilution MIC; type: cell-based; conditions: Enterococcus gallinarum 245
# Procedure: as §2
# [13] = system: Haemophilus influenzae RD; experiment: broth micro-dilution MIC; type: cell-based; conditions: Haemophilus influenzae RD
# Procedure: as §2
# [14] = system: Staphylococcus haemolyticus 105; experiment: broth micro-dilution MIC; type: cell-based
# Procedure: as §2
# [15] = system: Staphylococcus haemolyticus 415; experiment: broth micro-dilution MIC; type: cell-based
# Procedure: as §2
# [16] = system: Streptococcus pneumoniae P1; experiment: broth micro-dilution MIC; type: cell-based
# Procedure: as §2
# Streptococcus pyogenes = experiment: mouse protection, experimentally-induced infection; type: in vivo; conditions: mice infected with Streptococcus pyogenes, two doses
# Streptococcus pneumoniae = experiment: mouse protection, experimentally-induced infection; type: in vivo; conditions: mice infected with Streptococcus pneumoniae, two doses
# [17] = system: vancomycin-resistant enterococci; experiment: broth micro-dilution, mean geometric MIC; type: cell-based, Enterococcus faecium and Enterococcus faecalis; conditions: enterococci, 24-hour incubation
# [18] = system: vancomycin-susceptible enterococci; experiment: broth micro-dilution, mean geometric MIC; type: cell-based, Enterococcus faecium and Enterococcus faecalis; conditions: enterococci, 24-hour incubation
# [19] = system: Staphylococcus aureus 447; experiment: broth micro-dilution MIC; type: cell-based
# Procedure: as §1
# [20] = system: Staphylococcus epidermidis 270; experiment: broth micro-dilution MIC; type: cell-based
# Procedure: as §2
# Stapylococcus aureus = experiment: mouse protection, experimentally-induced infection; type: in vivo; conditions: mice infected with Stapylococcus aureus, two doses
smiles,measurement,setting,value
CNC(CC(C)C)C(=O)NC1C(=O)NC(CC(N)=O)C(=O)NC2C(=O)NC3C(=O)NC(C(=O)NC(C(=O)O)c4cc(O)cc(O)c4-c4cc3ccc4O)C(OC3CC(C)(N)C(O)C(C)O3)c3ccc(c(Cl)c3)Oc3cc2cc(c3OC2OC(CO)C(O)C(O)C2OC2CC(C)(NCc3ccc(Cc4ccccc4)c(OC)c3)C(O)C(C)O2)Oc2ccc(cc2Cl)C1O (centres unmarked) [Compound 104],MIC,[1],≤ 0.06 µg/mL
same,MIC,[2],0.125 µg/mL
same,MIC,[3],≤ 0.06 µg/mL
same,MIC,Entercoccus faecium 276,≤ 0.06 µg/mL
same,MIC,[4],≤ 0.06 µg/mL
same,MIC,[5],≤ 0.06 µg/mL
same,MIC,[6],≤ 0.06 µg/mL
same,MIC,[7],≤ 0.06 µg/mL
same,MIC,[8],2 µg/mL
same,MIC,[9],≤ 0.06 µg/mL
same,MIC,[10],≤ 0.06 µg/mL
same,MIC,[11],≤ 0.06 µg/mL
same,MIC,Entercoccus faecium 180,≤ 0.06 µg/mL
same,MIC,Entercoccus faecium 2041,≤ 0.06 µg/mL
same,MIC,[12],2 µg/mL
same,MIC,[13],32 µg/mL
same,MIC,[14],2 µg/mL
same,MIC,[15],2 µg/mL
same,MIC,[16],≤ 0.06 µg/mL
same,ED50,Streptococcus pyogenes,0.12 mg/kg/2
same,ED50,Streptococcus pneumoniae,0.041 mg/kg/2
same,"mean geometric MIC, Vancomycin Resistant Strains",[17],1.2 µg/mL
same,"mean geometric MIC, Vancomycin Sensitive Strains",[18],0.062 µg/mL
CNC(CC(C)C)C(=O)NC1C(=O)NC(CC(N)=O)C(=O)NC2C(=O)NC3C(=O)NC(C(=O)NC(C(=O)O)c4cc(O)cc(O)c4-c4cc3ccc4O)C(OC3CC(C)(N)C(O)C(C)O3)c3ccc(c(Cl)c3)Oc3cc2cc(c3OC2OC(CO)C(O)C(O)C2OC2CC(C)(NCc3ccc(OC(F)(F)C(F)F)cc3)C(O)C(C)O2)Oc2ccc(cc2Cl)C1O (centres unmarked) [Compound 121],MIC,[1],≤ 0.06 µg/mL
same,MIC,[2],0.25 µg/mL
same,MIC,[3],≤ 0.06 µg/mL
same,MIC,Entercoccus faecium 276,≤ 0.06 µg/mL
same,MIC,[4],2 µg/mL
same,MIC,[19],0.5 µg/mL
same,MIC,[5],1 µg/mL
same,MIC,[6],≤ 0.06 µg/mL
same,MIC,[7],≤ 0.06 µg/mL
same,MIC,[8],1 µg/mL
same,MIC,[10],0.5 µg/mL
same,MIC,[11],≤ 0.06 µg/mL
same,MIC,Entercoccus faecium 180,≤ 0.06 µg/mL
same,MIC,Entercoccus faecium 2041,≤ 0.06 µg/mL
same,MIC,[12],2 µg/mL
same,MIC,[13],16 µg/mL
same,MIC,[20],1 µg/mL
same,MIC,[14],2 µg/mL
same,MIC,[15],2 µg/mL
same,MIC,[16],≤ 0.06 µg/mL
same,ED50,Streptococcus pyogenes,0.041 mg/kg/2
same,ED50,Streptococcus pneumoniae,0.047 mg/kg/2
same,"mean geometric MIC, Vancomycin Resistant Strains",[17],1.0 µg/mL
same,"mean geometric MIC, Vancomycin Sensitive Strains",[18],0.063 µg/mL
CNC(CC(C)C)C(=O)NC1C(=O)NC(CC(N)=O)C(=O)NC2C(=O)NC3C(=O)NC(C(=O)NC(C(=O)O)c4cc(O)cc(O)c4-c4cc3ccc4O)C(OC3CC(C)(N)C(O)C(C)O3)c3ccc(c(Cl)c3)Oc3cc2cc(c3OC2OC(CO)C(O)C(O)C2OC2CC(C)(NCc3cccc(OCC4CCCCC4)c3)C(O)C(C)O2)Oc2ccc(cc2Cl)C1O (centres unmarked) [Compound 123],MIC,[1],≤ 0.06 µg/mL
same,MIC,[2],0.5 µg/mL
same,MIC,[3],≤ 0.06 µg/mL
same,MIC,Entercoccus faecium 276,0.25 µg/mL
same,MIC,[4],2 µg/mL
same,MIC,[19],1 µg/mL
same,MIC,[5],2 µg/mL
same,MIC,[6],≤ 0.06 µg/mL
same,MIC,[8],2 µg/mL
same,MIC,[9],1 µg/mL
same,MIC,[10],1 µg/mL
same,MIC,[11],≤ 0.06 µg/mL
same,MIC,Entercoccus faecium 180,0.25 µg/mL
same,MIC,Entercoccus faecium 2041,≤ 0.06 µg/mL
same,MIC,[12],1 µg/mL
same,MIC,[13],16 µg/mL
same,MIC,[20],1 µg/mL
same,MIC,[14],2 µg/mL
same,MIC,[15],1 µg/mL
same,MIC,[16],≤ 0.06 µg/mL
same,ED50,Streptococcus pyogenes,0.076 mg/kg/2
same,ED50,Streptococcus pneumoniae,0.039 mg/kg/2
same,"mean geometric MIC, Vancomycin Resistant Strains",[17],1.0 µg/mL
same,"mean geometric MIC, Vancomycin Sensitive Strains",[18],0.041 µg/mL
C=CCCCCCCCCCNC1(C)CC(OC2C(Oc3c4cc5cc3Oc3ccc(cc3Cl)C(OC3CC(C)(N)C(O)C(C)O3)C3NC(=O)C(NC(=O)C5NC(=O)C(CC(N)=O)NC(=O)C(NC(=O)C(CC(C)C)NC)C(O)c5ccc(c(Cl)c5)O4)c4ccc(O)c(c4)-c4c(O)cc(O)cc4C(C(=O)O)NC3=O)OC(CO)C(O)C2O)OC(C)C1O (centres unmarked) [Compound 204],MIC,[1],0.5 µg/mL
same,MIC,Entercoccus faecium 276,≤ 0.06 µg/mL
same,MIC,[19],≤ 0.06 µg/mL
same,MIC,[6],0.5 µg/mL
same,MIC,[10],0.5 µg/mL
same,MIC,[11],≤ 0.06 µg/mL
same,MIC,Entercoccus faecium 2041,≤ 0.06 µg/mL
same,MIC,[13],2 µg/mL
same,MIC,[20],≤ 0.06 µg/mL
same,MIC,[14],0.5 µg/mL
same,MIC,[16],≤ 0.06 µg/mL
same,ED50,Streptococcus pyogenes,< 0.031 mg/kg/2
same,ED50,Streptococcus pneumoniae,0.046 mg/kg/2
same,"mean geometric MIC, Vancomycin Resistant Strains",[17],0.71 µg/mL
same,"mean geometric MIC, Vancomycin Sensitive Strains",[18],0.031 µg/mL
"CNC(CC(C)C)C(=O)NC1C(=O)NC(CC(N)=O)C(=O)NC2C(=O)NC3C(=O)NC(C(=O)NC(C(=O)O)c4cc(O)cc(O)c4-c4cc3ccc4O)C(OC3CC(C)(N)C(O)C(C)O3)c3ccc(c(Cl)c3)Oc3cc2cc(c3OC2OC(CO)C(O)C(O)C2OC2CC(C)(NCc3ccc(-c4ccc(Cl)cc4)cc3)C(O)C(C)O2)Oc2ccc(cc2Cl)C1O (centres unmarked) [Compound 229, 4-[4-chlorophenyl]benzyl-A82846B]",MIC,[1],1 µg/mL
same,MIC,[2],1 µg/mL
same,MIC,[3],≤ 0.06 µg/mL
same,MIC,Entercoccus faecium 276,0.25 µg/mL
same,MIC,[4],1 µg/mL
same,MIC,[19],2 µg/mL
same,MIC,[5],1 µg/mL
same,MIC,[6],0.5 µg/mL
same,MIC,[7],≤ 0.06 µg/mL
same,MIC,[8],1 µg/mL
same,MIC,[9],1 µg/mL
same,MIC,[10],1 µg/mL
same,MIC,[11],≤ 0.06 µg/mL
same,MIC,Entercoccus faecium 180,≤ 0.06 µg/mL
same,MIC,Entercoccus faecium 2041,≤ 0.06 µg/mL
same,MIC,[12],2 µg/mL
same,MIC,[13],2 µg/mL
same,MIC,[20],0.5 µg/mL
same,MIC,[14],1 µg/mL
same,MIC,[15],2 µg/mL
same,MIC,[16],≤ 0.06 µg/mL
same,ED50,Streptococcus pyogenes,0.058 mg/kg/2
same,ED50,Streptococcus pneumoniae,0.078 mg/kg/2
same,"mean geometric MIC, Vancomycin Resistant Strains",[17],0.50 µg/mL
same,"mean geometric MIC, Vancomycin Sensitive Strains",[18],0.024 µg/mL
CNC(CC(C)C)C(=O)NC1C(=O)NC(CC(N)=O)C(=O)NC2C(=O)NC3C(=O)NC(C(=O)NC(C(=O)O)c4cc(O)cc(O)c4-c4cc3ccc4O)C(OC3CC(C)(N)C(O)C(C)O3)c3ccc(c(Cl)c3)Oc3cc2cc(c3OC2OC(CO)C(O)C(O)C2OC2CC(C)(NCc3ccc(-c4ccc(Br)cc4)cc3)C(O)C(C)O2)Oc2ccc(cc2Cl)C1O (centres unmarked) [Compound 230],MIC,[1],0.5 µg/mL
same,MIC,[3],≤ 0.06 µg/mL
same,MIC,Entercoccus faecium 276,≤ 0.06 µg/mL
same,MIC,[19],0.5 µg/mL
same,MIC,[7],≤ 0.06 µg/mL
same,MIC,[9],0.5 µg/mL
same,MIC,[11],≤ 0.06 µg/mL
same,MIC,Entercoccus faecium 180,≤ 0.06 µg/mL
same,MIC,Entercoccus faecium 2041,≤ 0.06 µg/mL
same,MIC,[12],4 µg/mL
same,MIC,[13],32 µg/mL
same,MIC,[20],0.5 µg/mL
same,MIC,[14],1 µg/mL
same,MIC,[15],2 µg/mL
same,MIC,[16],≤ 0.06 µg/mL
same,ED50,Streptococcus pyogenes,0.046 mg/kg/2
same,ED50,Streptococcus pneumoniae,0.078 mg/kg/2
same,"mean geometric MIC, Vancomycin Resistant Strains",[17],0.35 µg/mL
same,"mean geometric MIC, Vancomycin Sensitive Strains",[18],0.031 µg/mL
"CN[C@@H](CC(C)C)C(=O)N[C@H]1C(=O)N[C@H](CC(N)=O)C(=O)N[C@H]2C(=O)N[C@H]3C(=O)N[C@@H](C(=O)NC(C(=O)O)c4cc(O)cc(O)c4-c4cc3ccc4O)[C@@H](O[C@H]3C[C@](C)(N)[C@H](O)[C@@H](C)O3)c3ccc(cc3)Oc3cc2cc(c3O[C@H]2O[C@@H](CO)[C@@H](O)[C@H](O)[C@@H]2O[C@H]2C[C@](C)(N)[C@H](O)[C@@H](C)O2)Oc2ccc(cc2)[C@@H]1O (some centres unmarked) [Compound A82846C, A82846C, reference compound]",MIC,[2],≤ .06 µg/mL
same,MIC,Entercoccus faecium 276,0.5 µg/mL
same,MIC,[4],0.5 µg/mL
same,MIC,[19],0.5 µg/mL
same,MIC,[5],≤ .06 µg/mL
same,MIC,[6],1 µg/mL
same,MIC,[10],0.5 µg/mL
same,MIC,Entercoccus faecium 180,16 µg/mL
same,MIC,Entercoccus faecium 2041,0.5 µg/mL
same,MIC,[12],0.5 µg/mL
same,MIC,[14],1 µg/mL
same,MIC,[15],2 µg/mL
same,MIC,[16],≤ .06 µg/mL
same,ED50,Stapylococcus aureus,1.3 mg/kg/2
same,ED50,Streptococcus pyogenes,1.5 mg/kg/2
same,"mean geometric MIC, Vancomycin Resistant Strains",[17],353 µg/mL
